Molecules are shown by their SMILES. Like-named read-outs stand apart in the source and are kept apart here. Some results are limits rather than exact numbers.

In one test the test system is MCF-7. In words: MTS cell proliferation assay, MCF-7. It is filed as cell-based, human. How it is done:
Cancer cells (breast cancer cell lines MCF-7, MDA-MB-361, SKBR3 and MDA-MB-231, pancreatic cancer cell lines AsPC-1. […] Proliferation was measured by treating cells with the 3-(4,5-dimethylthiazol-2-yl)-5-(3-carboxymethoxyphenyl)-2-(4-sulfophenyl)-2H-tetrazolium) (MTS) in a CellTiter 96t AQueous Non-Radioactive Cell Proliferation Assay kit from Promega, Madison, Wis., USA). Absorbance of all wells was determined by measuring OD at 550 nm after 1 hr incubation at 37° C. on a 96-well iMark™ Microplate Absorbance Reader (BioRad, Hercules, Calif.). Each individual compound was tested in quadruplicate wells for each concentration, and the results were reported as mean absorption±s.e.
In Vitro Determination of Effects of Synthesized Compounds on Cancer Cell Proliferation. Cancer cells (breast cancer cell lines MCF-7 and MDA-MB-231, pancreatic cancer cell lines AsPC-1 and Panc-1) were […], 0.01, 0.1, 1, 5, 10, […] Proliferation was measured by treating cells with the 3-(4,5-dimethylthiazol-2-yl)-5-(3-carboxymethoxyphenyl)-2-(4-sulfophenyl)-2H-tetrazolium) (MTS) in a CellTiter 96t Aqueous Non-Radioactive Cell Proliferation Assay kit (Promega, Madison, Wis., USA). Absorbance of all wells was determined by measuring OD at 550 nm after 1 h incubation at 37° C. on a 96-well iMark™ Microplate Absorbance Reader (BioRad, Hercules, Calif.). Each individual compound was tested in quadruplicate wells for each concentration.

In a further test the test system is MDA-MB-231. In words: MTS cell proliferation assay, MDA-MB-231. It is filed as cell-based, human. The note with it: Homo sapiens. How it is done:
Cancer cells (breast cancer cell lines MCF-7, MDA-MB-361, SKBR3 and MDA-MB-231, pancreatic cancer cell lines AsPC-1. BxPC3 and Panc-1) were seeded in 96-well plates at a density of 1000-2000 cells/well and treated with DMSO, 0.01, 0.1, 1, 5, 10, and […] of STAT3 individual inhibitors for 72 hrs. Proliferation was measured by treating cells with the 3-(4,5-dimethylthiazol-2-yl)-5-(3-carboxymethoxyphenyl)-2-(4-sulfophenyl)-2H-tetrazolium) (MTS) in a CellTiter 96t AQueous Non-Radioactive Cell Proliferation Assay kit from Promega, Madison, Wis., USA). Absorbance of all wells was determined by measuring OD at 550 nm after 1 hr incubation at 37° C. on a 96-well iMark™ Microplate Absorbance Reader (BioRad, Hercules, Calif.).
In Vitro Determination of Effects of Synthesized Compounds on Cancer Cell Proliferation. Cancer cells (breast cancer cell lines MCF-7 and MDA-MB-231, pancreatic cancer cell lines AsPC-1 and Panc-1) were seeded in 96-well plates at a density of 2×10^3 cells/well and treated with DMSO, 0.01, 0.1, 1, 5, 10, and 100 μM of individual STAT3 inhibitors for 72 h. Proliferation was measured by treating cells with the 3-(4,5-dimethylthiazol-2-yl)-5-(3-carboxymethoxyphenyl)-2-(4-sulfophenyl)-2H-tetrazolium) (MTS) in a CellTiter 96t Aqueous Non-Radioactive Cell Proliferation Assay kit (Promega, Madison, Wis., USA). Absorbance of all wells was determined by measuring OD at 550 nm after 1 h incubation at 37° C. on a 96-well iMark™ Microplate Absorbance Reader (BioRad, Hercules, Calif.). Each individual compound was tested in quadruplicate wells for each concentration. […]
On the technique in general: Formazan colour is commonly taken as a measure of viable cells.

Setting [1] is: Homo sapiens, MCF7, 72 h; read-out: IC50 MCF-7 (Table 1).
Setting [2] is: MDA-MB-231, ER-negative breast cancer, 72 hrs, >10 = no effect, read-out: IC50 MDA-MB-231 (Table 1).
The mark [3] stands for this setting: Homo sapiens, MCF7, 72 h, read-out: IC50 MCF-7 (Table 1).
Where [4] appears, read: MDA-MB-231, 72 h, read-out: IC50 MDA-MB-231 (Table 1).
Where [5] appears, read: MCF-7, 48 hr, μM concentrations.

Broadly, the IC50 is the concentration needed to halve the response being measured. Take `COc1ccc(C(=O)Nc2ccc3c(c2)S(=O)(=O)CC3OC)cc1` (centres unmarked) [HJC-2-20, 4-Methoxy-N-(3-methoxy-1,1-dioxo-2,3-dihydro-1H-1λ^6-benzo[b]thiophen-6-yl)benzamide]: the half-maximal inhibitory concentration (IC50) in the test with MCF-7 (setting [1]) and in the test on MDA-MB-231 (setting [2]) was above 10 µM each time.

In the case of `NCCOCCOc1ccc(Cl)cc1C(=O)Nc1ccc([N+](=O)[O-])cc1Cl` [HJC-2-58, 2-[2-(2-Amino-ethoxy)-ethoxy]-5-chloro-N-(2-chloro-4-nitro-phenyl)benzamide], the figures for the IC50 with MCF-7 (setting [1]) and in the test on MDA-MB-231 (setting [2]) were 9.37 µM and 5.3 µM, respectively.

Regarding `CN1CCC(Oc2ccc(Cl)cc2C(=O)Nc2ccc3c(c2)S(=O)(=O)C=C3)CC1` [HJC-3-82, 5-Chloro-N-(1,1-dioxo-1H-1λ^6-benzo[b]thiophen-6-yl)-2-(1-methyl-piperidin-4-yloxy) benzamide], the IC50 came to 3.53 µM in the test with MCF-7 (setting [3]) and 2.68 µM with MDA-MB-231 (setting [4]).

On to `CN(C)CCOc1ccc(Cl)cc1C(=O)Nc1ccc([N+](=O)[O-])cc1Cl` [HJC-3-57, 5-Chloro-N-(2-chloro-4-nitro-phenyl)-2-(2-dimethylamino-ethoxy)benzamide], for which the concentration for half-maximal inhibition (IC50) in the test with MCF-7 (setting [3]) and in the test on MDA-MB-231 (setting [4]) was above 10 µM in each case.

Consider `CC(=O)N1CCC(Oc2ccc(Cl)cc2C(=O)Nc2ccc([N+](=O)[O-])cc2Cl)CC1` [HJC-4-22, 2-(1-Acetylpiperidin-4-yloxy)-5-chloro-N-(2-chloro-4-nitrophenyl)benzamide], for which the half-maximal inhibitory concentration (IC50) with MCF-7 (setting [1]) was above 10 µM; in the test with MDA-MB-231 (setting [2]) it was 5.87 µM.

Take `NCCOc1ccc(Cl)cc1C(=O)Nc1ccc2c(c1)S(=O)(=O)C=C2` [HJC-3-93, 2-(2-Amino-ethoxy)-5-chloro-N-(1,1-dioxo-1H-1λ^6-benzo[b]thiophen-6-yl)benzamide]: the values for the 50% inhibitory concentration (IC50) with MCF-7 (setting [1]) and in the test with MDA-MB-231 (setting [2]) were 3.47 µM and 3.12 µM, respectively.

For the molecule `N#C/C(=C\c1ccc(O)c(O)c1)C(=O)Nc1ccc2c(c1)S(=O)(=O)C=C2` [HJC-4-11, 2-Cyano-3-(3,4-dihydroxy-phenyl)-N-(1,1-dioxo-1H-1λ^6-benzo[b]thiophen-6-yl)-acrylamide], the half-maximal inhibitory concentration (IC50) in the test with MCF-7 (setting [3]) is 4.27 µM; with MDA-MB-231 (setting [4]) it was above 10 µM.

For the molecule `CS(=O)(=O)N(c1ccc(NC(=O)c2cc(Cl)ccc2OC2CCNCC2)c(Cl)c1)S(C)(=O)=O` [HJC-4-35-1], the concentration for half-maximal inhibition (IC50) with MCF-7 (setting [1]) and in the test with MDA-MB-231 (setting [2]) was above 10 µM in each case.

`CC(=O)NCCOc1ccc(Cl)cc1C(=O)Nc1ccc([N+](=O)[O-])cc1Cl` [HJC-4-25, 2-(2-Acetylaminoethoxy)-5-chloro-N-(2-chloro-4-nitrophenyl)benzamide]: the half-inhibitory concentration (IC50) in the test on MCF-7 (setting [1]) and with MDA-MB-231 (setting [2]) was above 10 µM in each case.

On to `O=C(Nc1ccc2c(c1)S(=O)(=O)C=C2)c1cnc2ccccc2c1` [HJC-3-91, Quinoline-3-carboxylic acid (1,1-dioxo-1H-1λ^6-benzo[b]thiophen-6-yl)amide], for which the IC50 amounted to 2.97 µM with MCF-7 (setting [1]) and 6.21 µM with MDA-MB-231 (setting [2]). Moreover, the “inhibition on breast cancer cell proliferation (FIG. 1)” value (“inhibition” below) with MCF-7 (setting [5]) was “significant inhibition”.

As for `COc1ccc(S(=O)(=O)Nc2ccc3c(c2)S(=O)(=O)C=C3)cc1` [HJC-3-68, N-(1,1-Dioxo-1H-1λ^6-benzo[b]thiophen-6-yl)-4-methoxybenzenesulfonamide], the values for the IC50 in the test on MCF-7 (setting [1]) and with MDA-MB-231 (setting [2]) were 3.45 µM and 2.71 µM, respectively.

Regarding `O=C(Nc1ccc2c(c1)S(=O)(=O)C=C2)c1cc(Cl)ccc1OCCBr` [HJC-3-77, 2-(2-Bromo-ethoxy)-5-chloro-N-(1,1-dioxo-1H-1λ^6-benzo[b]thiophen-6-yl)benzamide], the IC50 in the test with MCF-7 (setting [3]) and in the test with MDA-MB-231 (setting [4]) was above 10 µM each time.

`CC(=O)Nc1ccc(NC(=O)c2cc(Cl)ccc2OC2CCNCC2)c(Cl)c1` [HJC-4-32, N-(4-Acetylamino-2-chloro-phenyl)-5-chloro-2-(piperidin-4-yloxy)benzamide]: the IC50 with MCF-7 (setting [1]) and with MDA-MB-231 (setting [2]) was above 10 µM throughout.

In the case of `O=C(Nc1ccc([N+](=O)[O-])cc1Cl)c1cc(Cl)ccc1OCCN1CCNCC1` [HJC-2-52, 5-Chloro-N-(2-chloro-4-nitro-phenyl)-2-(2-piperazin-1-yl-ethoxy)benzamide], the 50% inhibitory concentration (IC50) with MCF-7 (setting [1]) is 12.4 µM; with MDA-MB-231 (setting [2]) it was 8.66 µM.

Turning to `O=C(Nc1ccc2c(c1)S(=O)(=O)C=C2)c1cc(Cl)ccc1OCCN1CCOCC1` [HJC-3-9, 5-Chloro-N-(1,1-dioxo-1H-1λ^6-benzo[b]thiophen-6-yl)-2-(2-morpholin-4-yl-ethoxy) benzamide], the values for the concentration for half-maximal inhibition (IC50) in the test with MCF-7 (setting [3]) and in the test with MDA-MB-231 (setting [4]) were 0.49 µM and 5.43 µM, respectively. The “inhibition” value in the test on MCF-7 (setting [5]) is given as “significant inhibition”.

Turning to `CC(=O)Nc1ccc2c(c1)S(=O)(=O)C=C2` [HJC-1-62, N-(1,1-Dioxo-1H-1λ^6-benzo[b]thiophen-6-yl)acetamide], the IC50 in the test on MCF-7 (setting [1]) and in the test with MDA-MB-231 (setting [2]) was above 10 µM throughout.

On to `O=C(Nc1ccc2c(c1)S(=O)(=O)C=C2)c1ccncc1` [HJC-3-80, N-(1,1-Dioxo-1H-1λ^6-benzo[b]thiophen-6-yl)-isonicotinamide], for which the IC50 in the test on MCF-7 (setting [1]) and with MDA-MB-231 (setting [2]) was above 10 µM in each case.

`O=C(Nc1ccc([N+](=O)[O-])cc1Cl)c1cc(Cl)ccc1OCC(O)CO` (centres unmarked) [HJC-3-60, 5-Chloro-N-(2-chloro-4-nitrophenyl)-2-(2,3-dihydroxypropoxy)benzamide]: the concentration for half-maximal inhibition (IC50) with MCF-7 (setting [1]) and in the test with MDA-MB-231 (setting [2]) was above 10 µM throughout.

Turning to `O=C(Nc1ccc2c(c1)S(=O)(=O)C=C2)c1cc(Cl)ccc1OCCF` [HJC-3-99, 5-Chloro-N-(1,1-dioxo-1H-1λ^6-benzo[b]thiophen-6-yl)-2-(2-fluoroethoxy)benzamide], the figures for the 50% inhibitory concentration (IC50) with MCF-7 (setting [3]) and with MDA-MB-231 (setting [4]) were 4 µM and 4.42 µM, respectively.

For `CN(C)CCOc1ccc(Cl)cc1C(=O)Nc1ccc2c(c1)S(=O)(=O)C=C2` [HJC-3-69, 5-Chloro-2-(2-dimethylaminoethoxy)-N-(1,1-dioxo-1H-1λ^6-benzo[b]thiophen-6-yl) benzamide], the half-inhibitory concentration (IC50) came to 3.5 µM in the test on MCF-7 (setting [3]) and 2.69 µM in the test with MDA-MB-231 (setting [4]). The “inhibition” value with MCF-7 (setting [5]) is listed as “significant inhibition”.

In the case of `CN1CCN(CCOc2ccc(Cl)cc2C(=O)Nc2ccc3c(c2)S(=O)(=O)C=C3)CC1` [HJC-3-78, 5-Chloro-N-(1,1-dioxo-1H-1λ^6-benzo[b]thiophen-6-yl)-2-[2-(4-methylpiperazin-1-yl)-ethoxy]benzamide], the values for the IC50 in the test on MCF-7 (setting [1]) and in the test with MDA-MB-231 (setting [2]) were 4.08 µM and 2.86 µM, respectively.

Take `O=C(Nc1ccc2c(c1)S(=O)(=O)C=C2)c1cc(Cl)ccc1OCCBr` [Compound 2]: the concentration for half-maximal inhibition (IC50) is above 10 µM with MCF-7 (Homo sapiens, MCF7, read-out: IC50 MCF-7 (Table 2)) and above 10 µM in the test with MDA-MB-231 (MDA-MB-231, read-out: IC50 MDA-MB-231 (Table 2)).

`NCCCCOc1ccc(Cl)cc1C(=O)Nc1ccc([N+](=O)[O-])cc1Cl` [HJC-4-31, 2-(4-Aminobutoxy)-5-chloro-N-(2-chloro-4-nitrophenyl)benzamide]: the IC50 came out at 3.7 µM in the test on MCF-7 (setting [1]) and 2.37 µM in the test with MDA-MB-231 (setting [2]). Besides, the “inhibition” value in the test on MCF-7 (setting [5]) was “significant inhibition”.

`CS(=O)(=O)N1CCN(CCOc2ccc(Cl)cc2C(=O)Nc2ccc([N+](=O)[O-])cc2Cl)CC1` [HJC-2-55, 5-Chloro-N-(2-chloro-4-nitrophenyl)-2-[2-(4-methanesulfonylpiperazin-1-yl)-ethoxy]benzamide]: the IC50 with MCF-7 (setting [1]) and in the test on MDA-MB-231 (setting [2]) was above 10 µM each time.

For `CS(=O)(=O)NCCOc1ccc(Cl)cc1C(=O)Nc1ccc([N+](=O)[O-])cc1Cl` [HJC-4-26, 5-Chloro-N-(2-chloro-4-nitrophenyl)-2-(2-methanesulfonylaminoethoxy)benzamide], the IC50 with MCF-7 (setting [1]) and in the test on MDA-MB-231 (setting [2]) was above 10 µM throughout.

For the molecule `CS(=O)(=O)Nc1ccc(NC(=O)c2cc(Cl)ccc2OC2CCNCC2)c(Cl)c1` [HJC-4-35-2], the concentration for half-maximal inhibition (IC50) with MCF-7 (setting [1]) and in the test on MDA-MB-231 (setting [2]) was above 10 µM throughout.

The values above are taken from US9884863B2, “STAT3 inhibitor” (Board of Regents, The University of Texas System, priority 2013, dated 2018).
